Reference: patent US12741974B2, “Compounds constituting C20-modified salinomycin derivatives, a method for obtaining the same, a composition containing the same, a use of said compounds and a method for obtaining an intermediate product” (FILECLO SP. Z O.O., priority 2020, dated 2021)

Legend:
[1] = test system: MV-4-11 (human biphenotypic leukaemia); test: In vitro cytotoxicity test, MTT assay, 72 h incubation with compound; format: cell-based; settings: for IC50: MV-4-11 human biphenotypic leukaemia, MTT, 72 h; for SI MV-4-11: selectivity coefficient, BALB/3T3 versus MV-4-11
Protocol: (§1) In vitro cytotoxicity tests were performed according to the procedure described below. […] The solvent for further dilutions was a culture medium.
(§2) The experiments were repeated at least 3 times.
After 4 hours of incubation at 37° C., 80 μL of lysis buffer was added to each well.

[2] = test system: advanced head, neck, breast and ovarian cancer; settings: small group of patients with advanced head; cited from earlier work
[3] = In vitro cytotoxicity test on normal cells, SRB assay, 72 h incubation with compound; format: cell-based; settings: mouse, balb/3t3 cells, normal murine fibroblasts, read-out: IC50 BALB/3T3
Protocol: (§3) Normal murine BALB/3T3 fibroblasts were also used in the tests for determining the selectivity coefficients of the compounds used in the assays.
as §1, §2

[4] = test system: Hs294T (human melanoma); test: In vitro cytotoxicity test, SRB assay, 72 h incubation with compound; format: cell-based; settings: for IC50: Hs294T human melanoma, SRB, 72 h; for SI Hs294T: selectivity coefficient, BALB/3T3 versus Hs294T
Protocol: as §1, §2

[5] = test system: LoVo/DX (drug-resistant human colon cancer); test: as above; format: cell-based; settings: for IC50: LoVo/DX drug-resistant human colon cancer, SRB, 72 h; for RI: drug resistance coefficient, LoVo/DX versus LoVo, 4320 min; for SI LoVo/DX: selectivity coefficient, BALB/3T3 versus LoVo/DX
Protocol: as §1, §2

[6] = test system: LoVo (drug-sensitive human colon cancer); test: as above; format: cell-based; settings: for IC50: LoVo drug-sensitive human colon cancer, SRB, 72 h; for SI LoVo: selectivity coefficient, BALB/3T3 versus LoVo
Protocol: as §1, §2

[7] = test system: MCF-7 (human breast cancer); test: as above; format: cell-based; settings: for IC50: MCF-7 human breast cancer, SRB, 72 h; for SI MCF-7: selectivity coefficient, BALB/3T3 versus MCF-7
Protocol: as §1, §2

[8] = test system: B16-F0 (murine melanoma); test: as above; format: cell-based; settings: for IC50: B16-F0 murine melanoma, SRB, 72 h; for SI B16-F0: selectivity coefficient, BALB/3T3 versus B16-F0
Protocol: as §1, §2

[9] = test system: BALB/3T3 (normal murine fibroblasts); test: In vitro cytotoxicity test on normal cells, SRB assay, 72 h incubation with compound; format: cell-based; settings: read-out: IC50 BALB/3T3
Protocol: as §3, §1, §2

[10] = test system: cancer cells; test: In vitro cytotoxicity tests, summary statements over the cancer cell lines; format: cell-based; settings: in words; for anti-proliferative effect compared to the parent compound: versus salinomycin
Protocol: The following cancer cell lines were used in in vitro studies: • B16-F0 (murine melanoma), • Hs294T (human melanoma), • LoVo (drug-sensitive human colon cancer), • LoVo/DX (drug-resistant human colon cancer), • MCF-7 (human breast cancer), • MV-4-11 (human biphenotypic leukaemia).
as §3
In vitro cytotoxicity tests were performed according to the procedure described below. Stock solutions of the test compounds at 10 mg/mLh were prepared for each experiment ex tempore by dissolving 1 mg of the preparation in 100 μL of dimethylsulfoxide (DMSO). The solvent for further dilutions was a culture medium. Compounds were tested at concentration ranges of 100 to 0.00001 μg/mLh (for the B16-F0 and Hs294T cell lines) and 100 to 0.1 μg/mLh (for the LoVo, LoVo/DX, MCF-7, MV-4-11 and BALB/3T3 cell lines).
An MTT tetrazolium salt reduction assay [as per: Wietrzyk et al., Anti-cancer drugs, 2007, 18, 447-457] was performed for MV-4-11 cells (human biphenotypic leukaemia) to evaluate the metabolic activity of cancer cells. On the other hand, to determine the anti-proliferative activity of all tested compounds against B16-F0 (murine melanoma), Hs294T (human melanoma), LoVo (drug-sensitive human colon cancer), LoVo/DX (drug-resistant human colon cancer), MCF-7 (human breast cancer) and BALB/3T3 (normal mouse fibroblasts) cell lines, the SRB colorimetric assay was used [as per: Skehan et al., Journal of the National Cancer Institute, 1990, 82, 1107-1112] measuring the inhibition of target cell proliferation based on the amount of cellular protein measured. In each experiment, samples containing specific concentrations of the test compound were applied to 96-well plates in triplicate. The experiments were repeated at least 3 times.
When calculating the mean absorbance value for a set of wells (untreated cells, cells treated with a specific compound at a specific concentration, control of medium alone), outliers were rejected using a 10% coefficient of variation CV.

SMILES | IC50 ([1]; MV4-11) [nM] | SI MV-4-11 [1] | CC50 at 72 h [3] [nM] | IC50 ([4]; Hs 294T) [nM] | SI Hs294T [4] | IC50 [5] [nM] | RI [5] | SI LoVo/DX [5] | IC50 [6] [nM] | SI LoVo [6] | IC50 ([7]; MCF7) [nM] | SI MCF-7 [7] | IC50 ([8]; Mus musculus, B16F0) [nM] | SI B16-F0 [8] | IC50 [1] [nM] | CC50 [9] [nM] | IC50 [4] [nM] | anti-proliferative effect compared to the parent compound [10] | further results
CC[C@@H](C(=O)[C@@H](C)[C@@H](O)[C@H](C)[C@@H]1O[C@@H]([C@@H](CC)C(=O)O)CC[C@@H]1C)[C@H]1O[C@]2(C=C[C@@H](O)[C@]3(CC[C@@](C)([C@H]4CC[C@](O)(CC)[C@H](C)O4)O3)O2)[C@H](C)C[C@@H]1C [salinomycin] | 70 | 29.7 | 2080 | 560 | 3.7 | 480 | 2.3 | 4.3 | 210 | 9.9 | 2100 | 1.0 | 630 | 3.3 | – | – | – | – | effect on cancer progression in patients [2]: inhibition of cancer progression; side effects in patients [2]: no acute side effects
CC[C@@H](C(=O)[C@@H](C)[C@@H](O)[C@H](C)[C@@H]1O[C@@H]([C@@H](CC)C(=O)O)CC[C@@H]1C)[C@H]1O[C@]2(C=C[C@H](NC(=O)c3ccccc3)[C@]3(CC[C@@](C)([C@H]4CC[C@](O)(CC)[C@H](C)O4)O3)O2)[C@H](C)C[C@@H]1C [(15 epi), reference compound] | – | 30 | – | – | 12.5 | 630 | 3 | 1.6 | 200 | 5 | – | 0.9 | – | 2.5 | 33 | 1000 | 80 | – | IC50 [7]: 1100 nM; IC50 [8]: 400 nM
CC[C@@H](C(=O)[C@@H](C)[C@@H](O)[C@H](C)[C@@H]1O[C@@H]([C@@H](CC)C(=O)O)CC[C@@H]1C)[C@H]1O[C@]2(C=C[C@H](NC(=O)C(C)C)[C@]3(CC[C@@](C)([C@H]4CC[C@](O)(CC)[C@H](C)O4)O3)O2)[C@H](C)C[C@@H]1C [(10 epi), reference compound] | – | 9.5 | – | – | 0.95 | – | – | – | – | – | – | – | – | – | 400 | 3800 | 4000 | – | –
CC[C@@H](C(=O)[C@@H](C)[C@@H](O)[C@H](C)[C@@H]1O[C@@H]([C@@H](CC)C(=O)O)CC[C@@H]1C)[C@H]1O[C@]2(C=C[C@@H](NC(=O)c3ccccc3)[C@]3(CC[C@@](C)([C@H]4CC[C@](O)(CC)[C@H](C)O4)O3)O2)[C@H](C)C[C@@H]1C [(15), C20-dehydroxy-C20-aminosalinomycin N-benzamide] | 60 | 27.2 | 1630 | 20 | 81.5 | 50 | 0.2 | 32.6 | 280 | 5.1 | 280 | 5.8 | 20 | 81.5 | – | – | – | several times more potent | –
CCOC(=O)N[C@H]1C=C[C@]2(O[C@H]([C@@H](CC)C(=O)[C@@H](C)[C@@H](O)[C@H](C)[C@@H]3O[C@@H]([C@@H](CC)C(=O)O)CC[C@@H]3C)[C@@H](C)C[C@H]2C)O[C@@]12CC[C@@](C)([C@H]1CC[C@](O)(CC)[C@H](C)O1)O2 [(19 epi), reference compound] | – | 22 | – | – | 16 | 700 | 3 | 1.4 | 240 | 4.1 | – | 1 | – | 3 | 46 | 1000 | 60 | – | IC50 [7]: 1000 nM; IC50 [8]: 330 nM
C#CCOC(=O)N[C@@H]1C=C[C@]2(O[C@H]([C@@H](CC)C(=O)[C@@H](C)[C@@H](O)[C@H](C)[C@@H]3O[C@@H]([C@@H](CC)C(=O)O)CC[C@@H]3C)[C@@H](C)C[C@H]2C)O[C@@]12CC[C@@](C)([C@H]1CC[C@](O)(CC)[C@H](C)O1)O2 [(22), C20-dehydroxy-C20-aminosalinomycin N-propargylcarbamate] | 50 | 26.4 | 1320 | 4.1 | 322.0 | 50 | 0.2 | 26.4 | 300 | 4.4 | 340 | 3.9 | 20 | 66.0 | – | – | – | tens of times more potent | –
CC[C@@H](C(=O)[C@@H](C)[C@@H](O)[C@H](C)[C@@H]1O[C@@H]([C@@H](CC)C(=O)[O-])CC[C@@H]1C)[C@H]1O[C@]2(C=C[C@@H](NC(=O)NCCCCl)[C@]3(CC[C@@](C)([C@H]4CC[C@](O)(CC)[C@H](C)O4)O3)O2)[C@H](C)C[C@@H]1C.[Na+] [(25), 3-chloropropylurea of C20-dehydroxy-C20-aminosalinomycin] | 0.3 | 4500.0 | 1350 | 5.6 | 241.1 | 220 | 11.0 | 6.1 | 20 | 67.5 | 180 | 7.5 | 10 | 135.0 | – | – | – | tens of times more potent | preferred effect against a type of cancer cells [10]: preferred effect against biphenotypic leukaemia cells
CC[C@@H](C(=O)[C@@H](C)[C@@H](O)[C@H](C)[C@@H]1O[C@@H]([C@@H](CC)C(=O)O)CC[C@@H]1C)[C@H]1O[C@]2(C=C[C@H](NC(=O)CCCCl)[C@]3(CC[C@@](C)([C@H]4CC[C@](O)(CC)[C@H](C)O4)O3)O2)[C@H](C)C[C@@H]1C [(12 epi), reference compound] | – | 2.9 | – | – | – | – | – | – | – | – | – | – | – | – | 2500 | 7300 | – | – | –
CC[C@@H](C(=O)[C@@H](C)[C@@H](O)[C@H](C)[C@@H]1O[C@@H]([C@@H](CC)C(=O)O)CC[C@@H]1C)[C@H]1O[C@]2(C=C[C@@H](NC(=O)C(C)C)[C@]3(CC[C@@](C)([C@H]4CC[C@](O)(CC)[C@H](C)O4)O3)O2)[C@H](C)C[C@@H]1C [(10), C20-dehydroxy-C20-aminosalinomycin N-isobutyramide] | 70 | 50.3 | 3520 | 20 | 176.0 | 190 | 0.3 | 18.5 | 670 | 5.3 | 700 | 5.0 | 70 | 50.3 | – | – | – | several times more potent | –
